Test results taken from ChEMBL document CHEMBL5214948, “Boronic Acid: A Novel Pharmacophore Targeting Src Homology 2 (SH2) Domain of STAT3” (J Med Chem, 2022).
Active and inactive are the calls of the source. No cut-off for these calls is given here.

Tests used:
MGC-803 [1] = test: Inhibition of cell migration in human MGC-803 cells assessed as cell migration incubated for 24 hrs by microscopy based by scratch wound healing assay; format: functional; settings: dose 1-3 µM, DDE = dose-dependent effect
AGS [2] = test: Inhibition of cell migration in human AGS cells assessed as cell migration incubated for 24 hrs by microscopy based by scratch wound healing assay; format: functional; settings: dose 1-3 µM, DDE = dose-dependent effect
AGS [3] = test: Inhibition of cell invasion in human AGS cells measured after 24 hrs by crystal violet staining based imaging transwell assay; format: functional; settings: dose 1-3 µM, DDE = dose-dependent effect
MGC-803 [4] = test: Inhibition of cell invasion in human MGC-803 cells measured after 24 hrs by crystal violet staining based imaging transwell assay; format: functional; settings: DDE = dose-dependent effect
MGC-803 [5] = test: Antitumor activity against human MGC-803 cells xenografted in ip dosed BALB/c nude mouse assessed as supression of tumor growth measured every day for 20 days; format: functional, organism-based; settings: dose 5-15 mg/kg, time 20.0 day, DDE = dose-dependent effect
MGC-803 [6] = test: Antitumor activity against human MGC-803 cells xenografted in BALB/c nude mouse assessed as tumor growth inhibition at 5 mg/kg, ip measured every day for 20 days; format: functional; set-up: scale not given: the % may be the effect or the level left; settings: time 20 day
MGC-803 [7] = test: Antitumor activity against human MGC-803 cells xenografted in BALB/c nude mouse assessed as tumor growth inhibition at 15 mg/kg, ip measured every day for 20 days; format: functional; set-up: scale not given: the % may be the effect or the level left; settings: time 20 day
[8] = Toxicity in BALB/c nude mouse xenografted with MGC-803 cells assessed as effect on body weight at 15 mg/kg, ip measured every day for 20 days; format: organism-based; settings: in vivo, 480 h, time 20 day
[9] = Toxicity in BALB/c nude mouse xenografted with MGC-803 cells assessed as effect on body weight at 5 mg/kg, ip measured every day for 20 days; format: organism-based; settings: in vivo, 480 h, time 20 day
MGC-803 [10] = test: Antitumor activity against human MGC-803 cells xenografted in BALB/c nude mouse assessed as reduction in phosphorylated STAT3 at Y705 residue at 15 mg/kg, ip measured every day for 20 days by immunohistochemical analysis; format: functional, organism-based; settings: time 20.0 day
MGC-803 [11] = test: Antitumor activity against human MGC-803 cells xenografted in BALB/c nude mouse assessed as reduction in phosphorylated STAT3 at Y705 residue at 5 mg/kg, ip measured every day for 20 days by immunohistochemical analysis; format: functional, organism-based; settings: time 20.0 day
MGC-803 [12] = test: Antitumor activity against human MGC-803 cells xenografted in BALB/c nude mouse assessed as reduction in Ki67 expression at 15 mg/kg, ip measured every day for 20 days by immunohistochemical analysis; format: functional, organism-based; settings: time 20.0 day
MGC-803 [13] = test: Antitumor activity against human MGC-803 cells xenografted in BALB/c nude mouse assessed as reduction in Ki67 expression at 5 mg/kg, ip measured every day for 20 days by immunohistochemical analysis; format: functional, organism-based; settings: time 20.0 day
MGC-803 [14] = test: Antitumor activity against human MGC-803 cells xenografted in BALB/c nude mouse assessed as reduction in tumor progression at 5 mg/kg, ip measured every day for 20 days by immunohistochemical analysis; format: functional, organism-based; settings: time 20.0 day
MGC-803 [15] = test: Antitumor activity against human MGC-803 cells xenografted in BALB/c nude mouse assessed as reduction in tumor progression at 15 mg/kg, ip measured every day for 20 days by immunohistochemical analysis; format: functional, organism-based; settings: time 20.0 day
MGC-803 [16] = test: Antitumor activity against human MGC-803 cells xenografted in BALB/c nude mouse assessed as reduction in tumor cells at 5 mg/kg, ip measured every day for 20 days by immunohistochemical analysis; format: functional, organism-based; settings: time 20.0 day
MGC-803 [17] = test: Antitumor activity against human MGC-803 cells xenografted in BALB/c nude mouse assessed as reduction in tumor cells at 15 mg/kg, ip measured every day for 20 days by immunohistochemical analysis; format: functional, organism-based; settings: time 20.0 day
MGC-803 [18] = test: Antitumor activity against human MGC-803 cells xenografted in BALB/c nude mouse assessed as reduction in c-myc expression at 15 mg/kg, ip measured every day for 20 days by immunohistochemical analysis; format: functional, organism-based; settings: time 20.0 day
MGC-803 [19] = test: Antitumor activity against human MGC-803 cells xenografted in BALB/c nude mouse assessed as reduction in c-myc expression at 5 mg/kg, ip measured every day for 20 days by immunohistochemical analysis; format: functional, organism-based; settings: time 20.0 day
MGC-803 [20] = test: Antitumor activity against human MGC-803 cells xenografted in BALB/c nude mouse assessed as reduction in Bcl-xL expression at 15 mg/kg, ip measured every day for 20 days by immunohistochemical analysis; format: functional, organism-based; settings: time 20.0 day
MGC-803 [21] = test: Antitumor activity against human MGC-803 cells xenografted in BALB/c nude mouse assessed as reduction in Bcl-xL expression at 5 mg/kg, ip measured every day for 20 days by immunohistochemical analysis; format: functional, organism-based; settings: time 20.0 day
[22] = Toxicity in nude BALB/c nude mouse xenografted with human MGC-803 cells assessed as morphological changes in heart at 5 to 15 mg/kg, ip measured every day for 20 days by H and E staining based assay; format: organism-based; settings: in vivo, 480 h, time 20 day
[23] = Toxicity in nude BALB/c nude mouse xenografted with human MGC-803 cells assessed as morphological changes in liver at 5 to 15 mg/kg, ip measured every day for 20 days by H and E staining based assay; format: organism-based; settings: in vivo, 480 h, time 20 day
[24] = Toxicity in nude BALB/c nude mouse xenografted with human MGC-803 cells assessed as morphological changes in lung at 5 to 15 mg/kg, ip measured every day for 20 days by H and E staining based assay; format: organism-based; settings: in vivo, 480 h, time 20 day
[25] = Toxicity in nude BALB/c nude mouse xenografted with human MGC-803 cells assessed as morphological changes in kidney at 5 to 15 mg/kg, ip measured every day for 20 days by H and E staining based assay; format: organism-based; settings: in vivo, 480 h, time 20 day
[26] = Toxicity in nude BALB/c nude mouse xenografted with human MGC-803 cells assessed as morphological changes in spleen at 5 to 15 mg/kg, ip measured every day for 20 days by H and E staining based assay; format: organism-based; settings: in vivo, 480 h, time 20 day
[27] = target: Signal transducer and activator of transcription 3 (Homo sapiens, UniProt P40763); test: Inhibition of STAT3 at Y705 residue phosphorylation at in human MGC-803 cells at 5 uM pretreated for 48 hrs followed by compound washout and measured after 72 hrs by immunoblotting analysis
Sequence of Signal transducer and activator of transcription 3 (P40763 whole entry, looked up): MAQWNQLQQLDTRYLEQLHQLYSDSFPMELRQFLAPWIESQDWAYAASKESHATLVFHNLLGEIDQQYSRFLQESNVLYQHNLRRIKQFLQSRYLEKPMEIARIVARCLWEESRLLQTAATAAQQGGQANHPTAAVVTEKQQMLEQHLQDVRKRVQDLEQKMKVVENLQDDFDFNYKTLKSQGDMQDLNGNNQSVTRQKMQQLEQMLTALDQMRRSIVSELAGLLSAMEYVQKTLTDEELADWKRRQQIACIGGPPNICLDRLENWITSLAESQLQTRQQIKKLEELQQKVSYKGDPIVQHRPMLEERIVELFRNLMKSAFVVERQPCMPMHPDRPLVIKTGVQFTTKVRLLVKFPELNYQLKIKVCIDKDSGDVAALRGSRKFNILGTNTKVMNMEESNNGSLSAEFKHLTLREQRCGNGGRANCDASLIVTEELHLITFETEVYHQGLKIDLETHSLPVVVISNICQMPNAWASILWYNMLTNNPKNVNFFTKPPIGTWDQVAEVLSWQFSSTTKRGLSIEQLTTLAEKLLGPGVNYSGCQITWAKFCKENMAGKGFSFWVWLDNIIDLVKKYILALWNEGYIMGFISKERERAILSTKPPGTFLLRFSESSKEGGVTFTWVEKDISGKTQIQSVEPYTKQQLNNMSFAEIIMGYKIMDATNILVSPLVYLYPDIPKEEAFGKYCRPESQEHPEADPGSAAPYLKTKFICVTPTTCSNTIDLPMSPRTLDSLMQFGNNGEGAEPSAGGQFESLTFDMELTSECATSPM

**Q.** For CN(CC(=O)N(Cc1ccc(C2CCCCC2)cc1)c1ccc(B(O)O)cc1)S(=O)(=O)c1c(F)c(F)c(F)c(F)c1F, which inhibition (MGC-803 [1]) is on record?
**A.** Dde

**Q.** And the inhibition (AGS [2])?
**A.** Dde

**Q.** And the inhibition (AGS [3])?
**A.** Dde

**Q.** What about the inhibition (MGC-803 [4]) of the same molecule?
**A.** Dde

**Q.** What about the Activity (MGC-803 [5]) of the same molecule?
**A.** Dde

**Q.** What about the Activity (MGC-803 [6]) of the same molecule?
**A.** 65.14%

**Q.** And the Activity (MGC-803 [7])?
**A.** 79.13%

**Q.** What about the Activity [8] of the same molecule?
**A.** Non-Toxic

**Q.** And the Activity [9]?
**A.** Non-Toxic

**Q.** What about the Activity (MGC-803 [10]) of the same molecule?
**A.** Active

**Q.** And the Activity (MGC-803 [11])?
**A.** Active

**Q.** What about the Activity (MGC-803 [12]) of the same molecule?
**A.** Active

**Q.** What about the Activity (MGC-803 [13]) of the same molecule?
**A.** Active

**Q.** And the Activity (MGC-803 [14])?
**A.** Active

**Q.** And the Activity (MGC-803 [15])?
**A.** Active

**Q.** What about the Activity (MGC-803 [16]) of the same molecule?
**A.** Active

**Q.** And the Activity (MGC-803 [17])?
**A.** Active

**Q.** And the Activity (MGC-803 [18])?
**A.** Active

**Q.** What about the Activity (MGC-803 [19]) of the same molecule?
**A.** Active

**Q.** What about the Activity (MGC-803 [20]) of the same molecule?
**A.** Active

**Q.** And the Activity (MGC-803 [21])?
**A.** Active

**Q.** What about the Activity [22] of the same molecule?
**A.** Non-Toxic

**Q.** What about the Activity [23] of the same molecule?
**A.** Non-Toxic

**Q.** And the Activity [24]?
**A.** Non-Toxic

**Q.** What about the Activity [25] of the same molecule?
**A.** Non-Toxic

**Q.** What about the Activity [26] of the same molecule?
**A.** Non-Toxic

**Q.** And the inhibition [27]?
**A.** Active
